Assays:
[1] = tested on: GLXMAW (Soybean, Williams); experiment: Preemergence herbicidal evaluation; assay type: in vivo, Glycine max, (L.) Merr. cv Williams; details: rated 4-5 weeks after treatment
Method in brief: (§1)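 Each species is sown separately in potting soil over roughly an inch of soil before any emergence. The soil surface then receives an aqueous acetone spray delivering about 0.0156 to 0.500 kg/ha of compound. After four to five weeks, injury is scored from 0 to 9 relative to a control.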

[2] = tested on: ZEAMX (Corn, Field); experiment: Postemergence herbicidal evaluation; assay type: in vivo, Zea mays; details: postemergence
Method in brief: (§2)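 Visual 0-9 injury score (stand, vigor, malformation, size, chlorosis, appearance vs untreated) taken four to five weeks post-spray, averaged across repeat tests. Test plants about two weeks old; foliar spray of acetone/water (1:1) with 0.5% surfactant delivering ~0.0156-0.500 kg active/ha.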

[3] = tested on: MOOVA (Monochoria); experiment: Preemergence weed control under flooded paddy conditions; assay type: in vivo, Monochoria vaginalis; details: rated 3-4 weeks after treatment
Method in brief: (§3)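 Using flooded silt loam (water 1.5 to 3 cm deep), seeds sown in the top 0.5 cm were exposed preemergence to compound pipetted into the flood at about 0.0313 to 0.500 kg/ha. Effects were scored 0-9 by eye three to four weeks later.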

[4] = tested on: GALAP (Galium); experiment: Postemergence herbicidal evaluation; assay type: in vivo, Galium aparine; details: postemergence
Method in brief: as §2

[5] = tested on: ORYSAT (Rice, Tebonnet); experiment: Postemergence herbicidal evaluation; assay type: in vivo, Oryza sativa, (L.) Tebonnet; details: postemergence
Method in brief: as §2

[6] = tested on: ORYSAT (Rice, Tebonnet); experiment: Preemergence herbicidal evaluation; assay type: in vivo, Oryza sativa, (L.) Tebonnet; details: rated 4-5 weeks after treatment
Method in brief: as §1

[7] = tested on: CASOB (Sicklepod); experiment: Postemergence herbicidal evaluation; assay type: in vivo, Cassia obtusifolia; details: postemergence
Method in brief: as §2

[8] = tested on: AMBEL (Ragweed, Common); experiment: Preemergence herbicidal evaluation; assay type: in vivo, Ambrosia artemisifolia; details: rated 4-5 weeks after treatment
Method in brief: as §1

[9] = tested on: SETVI (Foxtail, Green); experiment: Preemergence herbicidal evaluation; assay type: in vivo, Setaria viridis; details: rated 4-5 weeks after treatment
Method in brief: as §1

[10] = tested on: CHEAL (Lambsquarters, Common); experiment: Postemergence herbicidal evaluation; assay type: in vivo, Chenopodium album; details: postemergence
Method in brief: as §2

[11] = tested on: CYPSE (Flatsedge); experiment: Preemergence weed control under flooded paddy conditions; assay type: in vivo, Cyperus serotinus; details: rated 3-4 weeks after treatment
Method in brief: as §3

For CCOC(=O)CN1C(=O)C(C(=O)OC(C)(C)C)SC1=Nc1cc(-n2c(=O)cc(C(F)(F)F)n(C)c2=O)c(F)cc1Cl (stereo not shown) [Compound 167, 5-Carboxy-2-{{2-chloro-5-[3,6-dihydro-3-methyl-2,6-dioxo-4-(trifluoromethyl)-1(2H)-pyrimidinyl]-4-fluorophenyl}imino}-4-oxo-3-thiazolidineacetic acid, 5-tert-butyl ethyl ester], the “Preemergence herbicidal rating GLXMAW” value ([1]; 0.0156 kg/ha) was 1.0, the “Preemergence herbicidal rating GLXMAW” value ([1]; 0.0313 kg/ha) was 0.0 and the “Preemergence herbicidal rating GLXMAW” value ([1]; 0.0625 kg/ha) was 0.0. The “Preemergence herbicidal rating GLXMAW” value ([1]; 0.1250 kg/ha) was 4.0, the “Preemergence herbicidal rating GLXMAW” value ([1]; 0.2500 kg/ha) was 4.0 and the “Preemergence herbicidal rating GLXMAW” value ([1]; 0.5000 kg/ha) was 7.0. For the same compound, the “Herbicidal rating ZEAMX” value ([2]; rate 0.0156 kg/ha) was 4.5, the “Herbicidal rating ZEAMX” value ([2]; rate 0.0313 kg/ha) was 5.5 and the “Herbicidal rating ZEAMX” value ([2]; rate 0.0625 kg/ha) was 5.5. The “Herbicidal rating ZEAMX” value ([2]; rate 0.1250 kg/ha) was 5.5, the “herbicidal effect rating, MOOVA” value ([3]; 0.0313 kg/ha) was 9.0 and the “herbicidal effect rating, MOOVA” value ([3]; 0.0625 kg/ha) was 9.0. For the same compound, the “herbicidal effect rating, MOOVA” value ([3]; 0.1250 kg/ha) was 9.0, the “herbicidal effect rating, MOOVA” value ([3]; 0.2500 kg/ha) was 9.0 and the “Herbicidal rating GALAP” value ([4]; rate 0.0156 kg/ha) was 2.0. For the same compound, the “Herbicidal rating GALAP” value ([4]; rate 0.0313 kg/ha) was 3.0, the “Herbicidal rating GALAP” value ([4]; rate 0.0625 kg/ha) was 4.0 and the “Herbicidal rating GALAP” value ([4]; rate 0.1250 kg/ha) was 4.0. The “Herbicidal rating ORYSAT” value ([5]; rate 0.0156 kg/ha) was 3.0, the “Herbicidal rating ORYSAT” value ([5]; rate 0.0313 kg/ha) was 3.5 and the “Herbicidal rating ORYSAT” value ([5]; rate 0.0625 kg/ha) was 3.5. For the same compound, the “Herbicidal rating ORYSAT” value ([5]; rate 0.1250 kg/ha) was 4.0, the “Preemergence herbicidal rating ORYSAT” value ([6]; 0.0156 kg/ha) was 0.0 and the “Preemergence herbicidal rating ORYSAT” value ([6]; 0.0313 kg/ha) was 0.0. For the same compound, the “Preemergence herbicidal rating ORYSAT” value ([6]; 0.0625 kg/ha) was 1.0, the “Preemergence herbicidal rating ORYSAT” value ([6]; 0.1250 kg/ha) was 4.0 and the “Preemergence herbicidal rating ORYSAT” value ([6]; 0.2500 kg/ha) was 5.0. The “Preemergence herbicidal rating ORYSAT” value ([6]; 0.5000 kg/ha) was 6.0, the “Herbicidal rating CASOB” value ([7]; rate 0.0156 kg/ha) was 1.0 and the “Herbicidal rating CASOB” value ([7]; rate 0.0313 kg/ha) was 2.0. The “Herbicidal rating CASOB” value ([7]; rate 0.0625 kg/ha) was 1.0, the “Herbicidal rating CASOB” value ([7]; rate 0.1250 kg/ha) was 4.0 and the “Preemergence herbicidal rating AMBEL” value ([8]; 0.0156 kg/ha) was 1.0. For the same compound, the “Preemergence herbicidal rating AMBEL” value ([8]; 0.0313 kg/ha) was 0.0, the “Preemergence herbicidal rating AMBEL” value ([8]; 0.0625 kg/ha) was 7.0 and the “Preemergence herbicidal rating AMBEL” value ([8]; 0.1250 kg/ha) was 6.0. The “Preemergence herbicidal rating AMBEL” value ([8]; 0.2500 kg/ha) was 7.0, the “Preemergence herbicidal rating AMBEL” value ([8]; 0.5000 kg/ha) was 8.0 and the “Preemergence herbicidal rating SETVI” value ([9]; 0.0156 kg/ha) was 5.0. For the same compound, the “Preemergence herbicidal rating SETVI” value ([9]; 0.0313 kg/ha) was 7.0, the “Preemergence herbicidal rating SETVI” value ([9]; 0.0625 kg/ha) was 9.0 and the “Preemergence herbicidal rating SETVI” value ([9]; 0.1250 kg/ha) was 9.0. The “Preemergence herbicidal rating SETVI” value ([9]; 0.2500 kg/ha) was 9.0, the “Preemergence herbicidal rating SETVI” value ([9]; 0.5000 kg/ha) was 9.0 and the “Herbicidal rating CHEAL” value ([10]; rate 0.0156 kg/ha) was 4.0. The “Herbicidal rating CHEAL” value ([10]; rate 0.0313 kg/ha) was 7.0, the “Herbicidal rating CHEAL” value ([10]; rate 0.0625 kg/ha) was 9.0 and the “Herbicidal rating CHEAL” value ([10]; rate 0.1250 kg/ha) was 9.0. For the same compound, the “herbicidal effect rating, CYPSE” value ([11]; 0.0313 kg/ha) was 0.0, the “herbicidal effect rating, CYPSE” value ([11]; 0.0625 kg/ha) was 0.0 and the “herbicidal effect rating, CYPSE” value ([11]; 0.1250 kg/ha) was 3.0. For the same compound, the “herbicidal effect rating, CYPSE” value ([11]; 0.2500 kg/ha) was 5.0.
